The test system of data set [1] is urease, naturally present in the soil. The experiment in a line: Dräger test: ammonia emission from soil treated with fertilizer granules. The class given is biochemical. As to conditions: for influence of DAP on the performance of the tested urease inhibitors in urea/DAP blends on addition of the salt: 0.5 g salt, 3 weeks storage; for influence of DAP on the performance of the tested urease inhibitors in urea/DAP blends on addition of the salt / prevention of the degradation of U1: 10 g DAP; for prevention of the degradation of U1: 0.25 g salt, 18 days storage. From the text:
Alternatively, the amount of the (thio)phosphoric acid triamide (2) in a sample after a certain time period may be determined indirectly by determining the urease inhibiting efficacy that is observable. The urease-inhibiting efficacy may be determined by the Dräger test as outlined in the Examples. The Dräger test is based on the determination of the concentration of ammonia gas that is set free from a soil sample being treated with a urea-containing fertilizer once a day. In general, a certain amount of ammonia is typically produced within a certain time period in a soil sample being treated with a urea-containing fertilizer due to the degradation of the urea-containing fertilizer caused by the urease, which is present in the soil. If the urea-containing fertilizer is provided in combination with a urease inhibitor such as a (thio)phosphoric acid triamide (2), the degradation of the urea-containing fertilizer is slowed down, so that a lower amount of ammonia will be produced in the same time period. On the other hand, if the (thio)phosphoric acid triamide (2) has decomposed to a certain extent, e.g. upon storage, the production of ammonia will be reduced only to a lower extent. The ammonia concentration measured after a certain time period may thus be correlated with the amount of the (thio)phosphoric acid triamide (2) in a sample. In order to exclude a destabilizing effect caused by the urea-containing fertilizer (3a), the (thio)phosphoric acid triamide (2) may be provided in combination with a stabilizing agent, which prevents decomposition caused by the fertilizer (3a). By comparing the decomposition of the (thio)phosphoric acid triamide (2) in the presence of the fertilizer (3a) only, with the decomposition of the (thio)phosphoric acid triamide (2) in the presence of the fertilizer mixture (3) comprising the fertilizer (3a) and the P-containing fertilizer (3b), the decomposition caused by the P-containing fertilizer (3b) can be determined.
For the Dräger test, 150 g Limburgerhof (Germany) soil is added to a 500 mL wide-mouth jar (9 cm diameter). Fertilizer granules are added and distributed evenly over the soil. The amount of fertilizer added corresponds to 115 mg of urea-N. The soil and fertilizer are then wetted with a fine spray of water (1 mL). Afterwards, the jar is closed with a lid. In the middle of the lid a hole is made in which an ammonia gas test tube (Dräger, Ammoniak 20/a-D 8101301, Diffusionsröhrchen) is placed. The urease, naturally present in the soil, hydrolyses urea into carbon dioxide and ammonia. The concentration of ammonia gas is read out once a day from the scale on the Dräger diffusion tube. All tests are performed in duplicate.
For the preparation of dry blend fertilizer mixtures, 10 g of urea treated with a urease inhibitor and 10 g of the other fertilizer are added to a small jar. After closing the jar, the fertilizers are mixed by vigorously shaking the jar. The closed jar is then stored at room temperature in a dark place. At the end of the storage time, urea granules are removed and tested using the Dräger test.

The format of data set [2] is physicochemical. The following applies: for decomposition of the urease inhibitors: after one day in the absence of TSP granules. From the text: The amount of the (thio)phosphoric acid triamide in a sample after a certain time period may be detected e.g. by HPLC using method DIN EN 16651. In order to exclude a destabilizing effect caused by the urea-containing fertilizer (3a), the (thio)phosphoric acid triamide (2) may be provided in combination with a stabilizing agent, which prevents decomposition caused by the fertilizer (3a). By comparing the decomposition of the (thio)phosphoric acid triamide (2) in the presence of the fertilizer (3a) only, with the decomposition of the (thio)phosphoric acid triamide (2) in the presence of the fertilizer mixture (3) comprising the fertilizer (3a) and the P-containing fertilizer (3b), the decomposition caused by the P-containing fertilizer (3b) can be determined.
Active ingredient content on urea was analyzed by HPLC (high-pressure liquid chromatography) using method DIN EN 16651. In case of bulk blends, the urea granules were separated from the other fertilizers before dissolving in water for HPLC analysis.
Urea granules treated with 0.04 wt.-% U1 active ingredient were mixed with TSP (Triple Super Phosphate) fertilizer granules. After mixing, the samples were stored in closed containers at room temperature. After 1 day of storage, the urea granules were separated from the TSP granules and the active ingredient (a.i.) concentration on the urea was analyzed by HPLC.

These results are taken from US12037300B2, “Use of a cation source to prevent decomposition of (thio)phosphoric acid triamide urease inhibitors when a phosphorus-containing fertilizer is present” (BASF SE, priority 2016, dated 2024).

As to `O=S(=O)([O-])[O-].[Mg+2]` [magnesium sulfate, Magnesium sulfate anhydrous], the “prevention of the degradation of U1 in fertilizer mixtures containing DAP” value in data set [1] (0.25 g MgSO4, 10 g DAP, 1 month storage) is “does prevent the degradation of U1”. In addition, the “influence of DAP on the performance of the tested urease inhibitors in urea/DAP blends on addition of the salt” value in data set [1] was “eliminates the influence of DAP”. Moreover, the “time for which degradation of U1 in mixtures containing DAP is prevented” value in data set [1] (1.25 wt.-% magnesium sulfate) was “up to 5 months”. Also, in data set [1] (2.5 wt.-% magnesium sulfate), the “time for which degradation of U1 in mixtures containing phosphate fertilizers is prevented” value was “up to 6 months”. The “inhibition of the urease activity by the salt itself” value in data set [1] (10 g urea, 0.25 g MgSO4, 1 month storage) is “does not inhibit the urease activity”. Further, in data set [1] (Example 5, 18 days storage), the “inhibition of the urease enzyme by the salt on its own” value is “does not inhibit the urease enzyme”. Besides, the “amount effective to avoid U1 degradation” value in data set [1] (after 5 days storage of the NP mixture (urea/DAP)) is listed as at most 0.25 wt.-%.
With `CCCNP(N)(N)=S` [NPPT, N-n-propylthiophosphoric acid triamide], the “decomposition of the urease inhibitors” value in data set [2] was “no decomposition”.
For the molecule Urea, in data set [2] (24 h), the “Remaining a.i. (%)” value was found to be 100%.
`O.O.O=S(=O)([O-])[O-].[Ca+2]` [calcium sulfate, Calcium sulfate dihydrate]: the “prevention of the degradation of U1” value in data set [1] is “effective in preventing the degradation of U1”.
On the same count and under the same terms, the entry for `O.O.O.O.O.O.O.O=S(=O)([O-])[O-].[Mg+2]` [Magnesium sulfate heptahydrate] is “does prevent the degradation of U1 as effectively as anhydrous magnesium sulfate”.
As for `CCCCNP(N)(N)=S` [NBPT, N-n-butylthiophosphoric acid triamide], the “decomposition of the urease inhibitors” value in data set [2] is reported as “no decomposition”.
For the molecule `[Ca+2].[Cl-].[Cl-]` [calcium chloride, Calcium chloride anhydrous], in data set [1], the “prevention of the degradation of U1” value is recorded as “effective in preventing the degradation of U1” and the “influence of DAP on the performance of the tested urease inhibitors in urea/DAP blends on addition of the salt” value is on record as “eliminates the influence of DAP”. Moreover, the “prevention of the degradation of U1 active ingredient on wetblend fertilizers” value in data set [1] (16-8-22 fertilizer treated with CaCl2 solution, 1 month storage) is on record as “able to prevent the degradation of U1 active ingredient”.
